The values below come from paper PMC11345844, “Non-Covalent Inhibitors of SARS-CoV-2 Papain-Like Protease (PLpro): In Vitro and In Vivo Antiviral Activity” (Journal of Medicinal Chemistry, 2024).

“Also recorded” adds a separate entry of the source. Read-outs that look alike come from different tables or passages of the source.

In data set [1] the test system is SARS-CoV-2 (strain WA1). Description: Antiviral plaque assay in Vero cells with P-gp inhibitor CP-100356. Format: cell-based.
Data set [2] concerns PLpro. As to conditions: compared with all inhibitors studied; cited from earlier work.
Data set [3] concerns PLpro. Particulars: cited from earlier work; for IC50: read-out: Reported enzyme inhibition potency IC50, see referenced publications for assay details.
Data set [4] is described as follows: in vitro. Particulars: human.
For data set [5], the system named is SARS-CoV-2 (strain WA1). Format: cell-based.
Data set [6] is described as follows: Plasma PK of 32 (Figure S1).
Data set [7] can be described thus: Comparison of plasma PK of 10 and 42 (Figure S3). Particulars: 25 mg/kg i.p. (Figure S3).
Data set [8] has as its system SARS-CoV-2. As to conditions: read-out: Reported cell-based antiviral potency EC50; cited from earlier work.
A short description of data set [9]: Plasma exposure after 50 mg/kg i.p. in male C57BL/6 mice.
Data set [10] has as its system A549-hACE2 cells. As to conditions: cited from earlier work.
For data set [11], the system named is Vero E6 cells. Particulars: cited from earlier work.
Data set [12] has as its system COVID-19. As to conditions: human, in vivo, po; cited from earlier work.
The conditions of data set [13]: 64 25 mg/kg i.p., between 0.5 to 5 h after administration.
Data set [14] in a line: Plasma protein binding. Particulars: human.
Data set [15] in a line: in vivo. Particulars: male, hamster, plasma.
For data set [16] the following is noted: i.v. hamster, 2 mg/kg.
Data set [17] in a line: Human plasma stability.
Data set [18] can be described thus: in vivo. As to conditions: male, C57BL/6, mouse, plasma.
The subject of data set [19] is SARS-CoV-2. As to conditions: cited from earlier work.
The nature of data set [20]: in vivo. As to conditions: C57BL/6, mouse, plasma, ip, 25 mg/kg.

Turning to `Cc1ccc(NC2CNC2)cc1C(=O)N[C@H](C)c1cccc(-c2ccc(CN[C@H]3CC[C@@H](O)C3)s2)c1` [Compound 11], in data set [1], the “efficacy in inhibiting viral replication (plaque assay)” value was “least efficacious compound”. Besides, in data set [2], the off-rate result is “lowest off-rate”.

`CC(=O)Nc1cccc(CNC(=O)C2CCN([C@H](C)c3cccc4ccccc34)CC2)c1` [Compound 3]: in [3], the IC50 is 2.69 ± 0.34 µM.

`Cc1ccc(OC2CCNCC2)cc1C(=O)N[C@H](C)c1cccc(-c2ccc(CNC3CCCC3)s2)c1` [Compound 44, (R)-N-(1-(3-(5-((Cyclopentylamino)methyl)thiophen-2-yl)phenyl)ethyl)-2-methyl-5-(piperidin-4-yloxy)benzamide] returned a CC50 in data set [4] of 22 ± 0.9 µM.

Take `Cc1ccc(NC2CNC2)cc1C(=O)N[C@H](C)c1cccc(-c2ccc(CNC(=O)C3CCCC3)s2)c1` [Compound 32, (R)-5-(Azetidin-3-ylamino)-N-(1-(3-(5-(cyclopentanecarboxamidomethyl)thiophen-2-yl)phenyl)ethyl)-2-methylbenzamide]: the “efficacy in inhibiting viral replication (plaque assay)” value in data set [1] is recorded as “almost complete loss of antiviral activity”. Also, the “antiviral activity by RT-PCR of viral RNA” value in [5] is recorded as “lack of activity”. Further, the bioavailability administered i.p. result in data set [6] (25 mg/kg i.p. (Figure S1)) is on record as “good bioavailability”. In addition, in data set [6] (p.o. 100 mg/kg in corn oil, gavage (Figure S1)), the oral bioavailability result is on record as “without oral bioavailability”.

In the case of `CC(=O)OC(C)OC(=O)N1CC(Nc2ccc(C)c(C(=O)N[C@H](C)c3cccc(-c4ccc(CNC(=O)C5CCCC5)s4)c3)c2)C1` (stereo partly drawn) [Compound 62, 1-Acetoxyethyl 3-((3-(((R)-1-(3-(5-(cyclopentanecarboxamidomethyl)thiophen-2-yl)phenyl)ethyl)carbamoyl)-4-methylphenyl)amino)azetidine-1-carboxylate], in [5], the “antiviral activity by RT-PCR of viral RNA” value was “not greatly improved”.

`Cc1ccc(NC2CNC2)cc1C(=O)N[C@H](C)c1cccc(-c2cc(C)c(CNC3CCCC3)s2)c1` [Compound 16, (R)-5-(Azetidin-3-ylamino)-N-(1-(3-(5-((cyclopentylamino)methyl)-4-methylthiophen-2-yl)phenyl)ethyl)-2 Methylbenzamide] registered a CC50 in data set [4] of 27 ± 1.4 µM.

Regarding `Nc1ccc2cc3ccc(N)cc3nc2c1` [Compound 6, proflavine], the 50% inhibitory concentration (IC50) in data set [3] is 1.46 µM.

Consider `Cc1ccc(OC2CNC2)cc1C(=O)N[C@H](C)c1cccc(-c2ccc(CN3CCCC3)s2)c1` [Compound 42, (R)-5-(Azetidin-3-yloxy)-2-methyl-N-(1-(3-(5-(pyrrolidin-1-ylmethyl)thiophen-2-yl)phenyl)ethyl)benzamide], for which the “in vivo exposure compared to 10” value in data set [7] is recorded as “significantly lower exposure”. Moreover, the “efficacy in inhibiting viral replication (plaque assay)” value in data set [1] is recorded as “relatively higher efficacy”.

Regarding `Cc1ccc(OCCN)cc1C(=O)N[C@H](C)c1cccc(-c2ccc(CN3CCCC3)s2)c1` [Compound 48, (R)-5-(2-Aminoethoxy)-2-methyl-N-(1-(3-(5-(pyrrolidin-1-ylmethyl)thiophen-2-yl)phenyl)ethyl)benzamide], in [1], the “efficacy in inhibiting viral replication (plaque assay)” value is “low efficacy”.

On to `Cc1ccc(NC2CNC2)cc1C(=O)N[C@H](C)c1cccc(-c2ccc(CN3CCCC3)s2)c1` [Compound 2], for which the EC50 in data set [8] is 1.2 ± 0.2 µM. The toxicity observation result in [9] is reported as “overt toxicity”. In addition, the “potency against viral infection” value in [10] and in data set [11] was “low micromolar potency” throughout.

With `CC(C)C(=O)OC[C@H]1O[C@@H](n2cc/c(=N\O)[nH]c2=O)[C@H](O)[C@@H]1O` [Compound 65, Molnupiravir], in [12], the “efficacy against hospitalization or death” value is on record as “about 30%”.

Consider `Cc1ccc(NC2CNC2)cc1C(=O)N[C@H](C)c1cccc(-c2ccc(CN[C@H]3CC[C@@H](C(=O)OC[C@H]4O[C@@H](n5ccc(NO)nc5=O)[C@H](O)[C@@H]4O)C3)s2)c1` [Compound 64, ((3S,4R,5R)-3,4-Dihydroxy-5-(4-(hydroxyamino)-2-oxopyrimidin-1(2H)-yl)tetrahydrofuran-2-yl)methyl (1R,3S)-3-(((5-(3-((R)-1-(5-(azetidin-3-ylamino)-2-methylbenzamido)ethyl)phenyl)thiophen-2-yl)methyl)amino)cyclopentane-1-carboxylate], for which the “detection of mutual prodrug in plasma” value in data set [13] is on record as “not detectable; also recorded: undetectable”.

`Cc1ccc(NC2CNC2)cc1C(=O)N[C@H](C)c1cccc(-c2ccc(CNC3CCCC3)s2)c1` [Compound 10] gave a fraction unbound in [14] of 0.033. Further, the CC50 in data set [4] came to 43 ± 1.8 µM. For the same compound, the maximum concentration (Cmax) in data set [15] (iv, 2 mg/kg) is 2920 ± 474 ng/mL; in data set [15] (sc, 20 mg/kg) it was 1220 ± 276 ng/mL; in [18] (iv, 2 mg/kg), 734 ± 125 ng/mL; in [18] (sc, 50 mg/kg) it was 3190 ± 667 ng/mL. The same compound displayed a plasma clobs in [16] of 75 ± 5 mL/min/kg and a plasma clobs (i.v. mouse, 2 mg/kg) of 111 ± 16 mL/min/kg. The “potency against viral infection” value in data set [10] and in data set [11] was “low micromolar potency” in each case. For the same compound, the half-life in [17] was 60 h. For the setting “i.v./s.c., mice and hamsters, minor species differences”, the bioavailability entry is given as “good”.

`COC(=O)/C=C/CNC(=O)CNC(=O)[C@H](CN)NC(=O)[C@H](CCc1nc2ccccc2s1)NC(C)=O` [Compound 8]: the “Reported enzyme inhibition” value in data set [3] (at 100 μM) is “almost complete inhibition”.

Take `CC(C)(C)[C@H](NC(=O)C(F)(F)F)C(=O)N1C[C@H]2[C@@H]([C@H]1C(=O)N[C@H](C#N)C[C@@H]1CCNC1=O)C2(C)C` [nirmatrelvir]: the “left-shift in the response caused by CP-100356” value in data set [19] is recorded as “ca. 100 fold”.

For `Cc1ccc(NC2CNC2)cc1C(=O)N[C@H](C)c1cccc(-c2ccc(CN[C@H]3CC[C@@H](C(=O)O)C3)s2)c1` [Compound 39, (1R,3S)-3-(((5-(3-((R)-1-(5-(Azetidin-3-ylamino)-2-methylbenzamido)ethyl)phenyl)thiophen-2-yl)methyl)amino)cyclopentane-1-carboxylic Acid], in [20], the peak level (Cmax) was 7910 ng/mL and the half-life was 2 h.
